Calls of active or inactive are those of the source. The calls are words filed in the database; no cut-off is given here.
Experiments:
[1] = target: T1, Serine/threonine-protein kinase greatwall (Homo sapiens) (UniProt Q96GX5); experiment: Inhibition of MASTL Lys2 labeling site in human Huh-7 cell lysate at 1 uM by KiNativ Profiling analysis relative to control; assay type: subcellular
T1 sequence (whole entry): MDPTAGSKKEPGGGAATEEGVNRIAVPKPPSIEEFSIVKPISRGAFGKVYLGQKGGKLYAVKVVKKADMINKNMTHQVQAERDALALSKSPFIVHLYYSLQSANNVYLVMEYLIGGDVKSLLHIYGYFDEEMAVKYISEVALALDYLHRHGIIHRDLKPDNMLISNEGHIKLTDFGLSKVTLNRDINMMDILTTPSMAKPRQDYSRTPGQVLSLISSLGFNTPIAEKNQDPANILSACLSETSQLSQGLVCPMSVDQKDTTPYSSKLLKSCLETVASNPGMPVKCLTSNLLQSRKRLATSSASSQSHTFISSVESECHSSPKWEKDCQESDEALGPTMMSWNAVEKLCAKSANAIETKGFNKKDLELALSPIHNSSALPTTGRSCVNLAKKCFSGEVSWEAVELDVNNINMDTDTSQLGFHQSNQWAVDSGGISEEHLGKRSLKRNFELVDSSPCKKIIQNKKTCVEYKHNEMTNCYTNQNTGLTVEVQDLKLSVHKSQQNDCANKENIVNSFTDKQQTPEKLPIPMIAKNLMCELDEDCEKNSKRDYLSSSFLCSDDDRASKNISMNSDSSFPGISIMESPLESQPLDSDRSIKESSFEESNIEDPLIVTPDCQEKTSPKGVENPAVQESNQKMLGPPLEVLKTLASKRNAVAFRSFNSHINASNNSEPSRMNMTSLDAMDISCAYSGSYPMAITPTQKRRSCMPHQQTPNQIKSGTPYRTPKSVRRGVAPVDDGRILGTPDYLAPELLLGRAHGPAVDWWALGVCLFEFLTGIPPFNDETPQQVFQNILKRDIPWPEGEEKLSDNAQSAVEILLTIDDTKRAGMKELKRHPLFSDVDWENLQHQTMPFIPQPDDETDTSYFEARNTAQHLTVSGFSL

[2] = target: Serine/threonine-protein kinase WNK4 (Homo sapiens) (UniProt Q96J92); experiment: Inhibition of Wnk4 K2 labeling site in human Huh-7 cells at 10 uM by KiNativ Profiling analysis relative to control; assay type: cell-based
[3] = target: Cyclin-dependent kinase 5 (Homo sapiens) (UniProt Q00535); experiment: Inhibition of CDK5 Lys2 labeling site in human A-375 cells at 5 uM by KiNativ Profiling analysis relative to control; assay type: cell-based
[4] = target: Serine/threonine-protein kinase MARK2 (Homo sapiens) (UniProt Q7KZI7); experiment: Inhibition of MARK2 K1 labeling site harbouring HILTGKEVAVKIIDKTQLNSSSLQK in human Huh-7 cells at 10 uM by KiNativ Profiling analysis relative to control; assay type: cell-based
[5] = target: Calcium/calmodulin-dependent protein kinase type II subunit gamma (Homo sapiens) (UniProt Q13555); experiment: Inhibition of CAMK2G (unknown origin) at 10 uM by Ambit Kinomescan binding assay
[6] = target: MAP kinase-interacting serine/threonine-protein kinase 2 (Homo sapiens) (UniProt Q9HBH9); experiment: Inhibition of MKNK2 (unknown origin) at 1 uM by Ambit Kinomescan binding assay relative to control; values are per cent of control
[7] = target: T2, Atrial natriuretic peptide receptor 2 (Homo sapiens) (UniProt P20594); experiment: Inhibition of ANPb Lys2 labeling site in human A-375 cells at 5 uM by KiNativ Profiling analysis relative to control; assay type: cell-based
T2 sequence (whole entry): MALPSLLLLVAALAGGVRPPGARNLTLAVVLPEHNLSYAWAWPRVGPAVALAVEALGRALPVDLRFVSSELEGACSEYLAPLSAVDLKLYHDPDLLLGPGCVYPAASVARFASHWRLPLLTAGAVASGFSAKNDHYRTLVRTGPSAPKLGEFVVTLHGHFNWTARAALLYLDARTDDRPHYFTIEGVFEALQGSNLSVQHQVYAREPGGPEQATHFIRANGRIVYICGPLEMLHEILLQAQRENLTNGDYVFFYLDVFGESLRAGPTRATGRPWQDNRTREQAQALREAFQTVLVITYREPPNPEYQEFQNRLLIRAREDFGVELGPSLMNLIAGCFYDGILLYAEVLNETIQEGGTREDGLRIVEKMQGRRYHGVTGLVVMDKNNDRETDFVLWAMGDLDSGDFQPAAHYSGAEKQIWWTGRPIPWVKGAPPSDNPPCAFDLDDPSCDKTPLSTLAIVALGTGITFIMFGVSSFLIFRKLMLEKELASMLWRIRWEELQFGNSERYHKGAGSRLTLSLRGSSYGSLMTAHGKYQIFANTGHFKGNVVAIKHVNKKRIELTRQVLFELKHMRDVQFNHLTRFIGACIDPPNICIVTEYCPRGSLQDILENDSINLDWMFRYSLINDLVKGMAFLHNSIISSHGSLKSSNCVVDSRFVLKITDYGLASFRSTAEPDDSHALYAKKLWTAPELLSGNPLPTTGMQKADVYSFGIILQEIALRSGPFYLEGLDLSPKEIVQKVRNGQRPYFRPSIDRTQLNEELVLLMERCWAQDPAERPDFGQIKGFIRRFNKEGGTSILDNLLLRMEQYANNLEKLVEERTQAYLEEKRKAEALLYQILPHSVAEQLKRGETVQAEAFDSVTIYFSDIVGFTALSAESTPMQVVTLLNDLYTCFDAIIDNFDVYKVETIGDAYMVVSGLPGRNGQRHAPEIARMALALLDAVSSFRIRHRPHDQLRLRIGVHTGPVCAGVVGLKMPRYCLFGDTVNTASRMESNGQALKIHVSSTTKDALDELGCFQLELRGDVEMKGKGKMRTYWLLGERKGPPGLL

[8] = target: Maternal embryonic leucine zipper kinase (Homo sapiens) (UniProt Q14680); experiment: Inhibition of MELK (unknown origin) at 1 uM by Ambit Kinomescan binding assay relative to control; values are per cent of control
Chain of Maternal embryonic leucine zipper kinase (Homo sapiens) (Q14680 whole entry, looked up): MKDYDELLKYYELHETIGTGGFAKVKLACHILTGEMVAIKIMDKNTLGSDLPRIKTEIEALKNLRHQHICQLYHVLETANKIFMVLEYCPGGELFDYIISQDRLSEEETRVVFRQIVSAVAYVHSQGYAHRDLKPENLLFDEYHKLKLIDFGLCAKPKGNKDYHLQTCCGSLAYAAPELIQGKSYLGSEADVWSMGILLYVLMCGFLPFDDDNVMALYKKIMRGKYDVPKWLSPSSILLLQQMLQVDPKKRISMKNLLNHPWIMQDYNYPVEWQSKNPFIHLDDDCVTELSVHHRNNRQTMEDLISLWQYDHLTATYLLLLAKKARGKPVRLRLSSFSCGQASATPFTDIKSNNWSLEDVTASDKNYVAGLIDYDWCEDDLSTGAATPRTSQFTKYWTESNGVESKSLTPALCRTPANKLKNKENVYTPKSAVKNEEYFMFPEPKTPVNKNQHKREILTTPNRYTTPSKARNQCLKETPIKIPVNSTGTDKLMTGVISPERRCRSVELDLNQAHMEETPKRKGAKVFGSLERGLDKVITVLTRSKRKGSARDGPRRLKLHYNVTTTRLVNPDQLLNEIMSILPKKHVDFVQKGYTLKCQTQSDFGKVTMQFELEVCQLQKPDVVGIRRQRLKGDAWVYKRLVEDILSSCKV

Chain of Serine/threonine-protein kinase WNK4 (Homo sapiens) (Q96J92 whole entry): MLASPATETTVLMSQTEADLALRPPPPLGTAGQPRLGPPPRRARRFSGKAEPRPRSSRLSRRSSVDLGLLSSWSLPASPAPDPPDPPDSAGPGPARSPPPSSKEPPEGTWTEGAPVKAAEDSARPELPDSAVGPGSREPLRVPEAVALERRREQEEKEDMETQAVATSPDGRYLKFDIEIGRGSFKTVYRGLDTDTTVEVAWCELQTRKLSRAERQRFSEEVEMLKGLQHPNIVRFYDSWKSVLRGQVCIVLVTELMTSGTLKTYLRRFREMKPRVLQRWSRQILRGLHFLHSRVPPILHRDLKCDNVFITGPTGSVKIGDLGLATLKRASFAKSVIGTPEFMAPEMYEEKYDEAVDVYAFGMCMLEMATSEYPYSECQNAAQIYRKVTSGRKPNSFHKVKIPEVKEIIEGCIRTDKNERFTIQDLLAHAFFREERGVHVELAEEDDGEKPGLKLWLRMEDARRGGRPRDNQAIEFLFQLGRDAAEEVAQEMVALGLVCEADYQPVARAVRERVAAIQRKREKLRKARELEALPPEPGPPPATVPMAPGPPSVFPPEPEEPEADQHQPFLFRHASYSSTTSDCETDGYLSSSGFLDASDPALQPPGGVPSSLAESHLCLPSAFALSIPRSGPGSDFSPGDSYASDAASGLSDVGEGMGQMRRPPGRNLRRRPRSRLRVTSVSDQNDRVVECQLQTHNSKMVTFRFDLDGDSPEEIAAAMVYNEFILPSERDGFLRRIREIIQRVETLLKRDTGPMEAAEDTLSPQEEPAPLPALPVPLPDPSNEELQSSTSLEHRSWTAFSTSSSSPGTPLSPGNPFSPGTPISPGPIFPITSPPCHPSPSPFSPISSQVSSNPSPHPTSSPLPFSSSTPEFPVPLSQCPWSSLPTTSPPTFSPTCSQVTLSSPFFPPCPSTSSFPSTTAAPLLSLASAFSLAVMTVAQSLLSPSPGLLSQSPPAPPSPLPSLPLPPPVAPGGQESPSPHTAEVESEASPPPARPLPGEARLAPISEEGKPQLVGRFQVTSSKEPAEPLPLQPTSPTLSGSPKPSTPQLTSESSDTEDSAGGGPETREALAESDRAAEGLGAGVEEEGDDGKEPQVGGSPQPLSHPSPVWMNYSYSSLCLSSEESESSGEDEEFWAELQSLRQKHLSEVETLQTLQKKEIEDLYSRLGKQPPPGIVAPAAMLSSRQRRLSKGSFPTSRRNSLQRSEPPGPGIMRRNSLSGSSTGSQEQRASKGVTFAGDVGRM
Chain of Cyclin-dependent kinase 5 (Homo sapiens) (Q00535 whole entry, looked up): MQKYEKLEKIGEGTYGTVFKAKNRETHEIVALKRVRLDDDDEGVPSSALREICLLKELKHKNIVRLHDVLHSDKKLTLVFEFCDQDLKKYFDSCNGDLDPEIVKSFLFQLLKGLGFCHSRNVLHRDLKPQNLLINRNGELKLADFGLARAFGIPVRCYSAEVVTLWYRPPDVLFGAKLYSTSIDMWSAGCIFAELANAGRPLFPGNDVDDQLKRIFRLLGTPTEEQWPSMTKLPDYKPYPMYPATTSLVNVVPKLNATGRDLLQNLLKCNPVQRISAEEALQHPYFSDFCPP
Chain of MAP kinase-interacting serine/threonine-protein kinase 2 (Homo sapiens) (Q9HBH9 whole entry, looked up): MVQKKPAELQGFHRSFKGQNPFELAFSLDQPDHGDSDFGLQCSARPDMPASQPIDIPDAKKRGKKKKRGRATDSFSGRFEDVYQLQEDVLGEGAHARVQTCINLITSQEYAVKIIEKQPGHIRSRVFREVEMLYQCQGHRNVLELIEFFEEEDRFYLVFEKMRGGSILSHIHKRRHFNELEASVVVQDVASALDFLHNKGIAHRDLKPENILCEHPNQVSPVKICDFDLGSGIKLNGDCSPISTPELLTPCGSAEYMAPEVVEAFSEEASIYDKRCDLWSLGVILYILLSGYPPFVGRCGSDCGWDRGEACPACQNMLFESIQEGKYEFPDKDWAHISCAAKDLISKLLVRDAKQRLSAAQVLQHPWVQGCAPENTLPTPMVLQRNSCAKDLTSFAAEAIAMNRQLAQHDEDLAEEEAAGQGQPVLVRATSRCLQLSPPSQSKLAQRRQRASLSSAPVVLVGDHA
Chain of Serine/threonine-protein kinase MARK2 (Homo sapiens) (Q7KZI7 whole entry): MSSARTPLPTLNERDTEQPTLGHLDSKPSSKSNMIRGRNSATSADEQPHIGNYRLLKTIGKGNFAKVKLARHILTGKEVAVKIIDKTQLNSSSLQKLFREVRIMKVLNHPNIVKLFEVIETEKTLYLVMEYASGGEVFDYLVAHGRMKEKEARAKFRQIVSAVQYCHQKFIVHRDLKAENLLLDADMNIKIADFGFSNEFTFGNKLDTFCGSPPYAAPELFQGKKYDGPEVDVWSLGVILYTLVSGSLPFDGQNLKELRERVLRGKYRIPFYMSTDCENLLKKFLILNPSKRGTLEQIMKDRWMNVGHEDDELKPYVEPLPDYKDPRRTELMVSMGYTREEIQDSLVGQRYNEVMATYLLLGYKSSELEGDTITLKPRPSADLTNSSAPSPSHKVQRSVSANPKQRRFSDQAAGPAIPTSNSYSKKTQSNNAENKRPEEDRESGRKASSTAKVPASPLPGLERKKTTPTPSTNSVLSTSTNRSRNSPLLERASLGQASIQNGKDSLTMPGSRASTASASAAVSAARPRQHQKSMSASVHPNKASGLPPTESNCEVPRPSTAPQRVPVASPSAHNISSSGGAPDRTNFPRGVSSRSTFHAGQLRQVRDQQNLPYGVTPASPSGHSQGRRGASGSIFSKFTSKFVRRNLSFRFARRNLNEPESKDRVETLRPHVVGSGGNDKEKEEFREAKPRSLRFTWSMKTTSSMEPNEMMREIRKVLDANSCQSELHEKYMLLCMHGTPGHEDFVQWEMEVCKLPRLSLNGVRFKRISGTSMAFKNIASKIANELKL
Chain of Calcium/calmodulin-dependent protein kinase type II subunit gamma (Homo sapiens) (Q13555 whole entry): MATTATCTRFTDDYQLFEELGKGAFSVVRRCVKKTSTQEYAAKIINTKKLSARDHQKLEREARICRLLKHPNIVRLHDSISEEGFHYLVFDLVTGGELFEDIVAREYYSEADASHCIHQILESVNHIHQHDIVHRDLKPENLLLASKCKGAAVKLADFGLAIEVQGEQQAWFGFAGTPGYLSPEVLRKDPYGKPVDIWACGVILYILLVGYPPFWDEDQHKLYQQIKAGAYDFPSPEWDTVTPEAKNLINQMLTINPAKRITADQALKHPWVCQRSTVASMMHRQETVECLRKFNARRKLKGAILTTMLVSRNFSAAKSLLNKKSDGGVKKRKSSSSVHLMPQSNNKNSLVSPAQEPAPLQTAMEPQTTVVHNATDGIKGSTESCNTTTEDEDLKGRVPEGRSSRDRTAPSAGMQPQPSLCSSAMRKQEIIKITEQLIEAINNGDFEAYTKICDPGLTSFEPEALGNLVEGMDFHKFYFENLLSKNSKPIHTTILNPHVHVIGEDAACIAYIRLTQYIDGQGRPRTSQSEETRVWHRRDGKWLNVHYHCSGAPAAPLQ

SMILES: CNc1cc(Oc2cc(C(=O)Nc3cc(N4CCN(C)CC4)cc(C(F)(F)F)c3)ccc2C)ncn1
- inhibition [1]: 26%

SMILES: CCN1CCN(Cc2ccc(NC(=O)c3ccc(C)c(Oc4ccnc5[nH]ccc45)c3)cc2C(F)(F)F)CC1
- inhibition [2]: -1.5%
- inhibition [3]: -6.8%
- inhibition [4]: inactive
- inhibition [5]: inactive

SMILES: CCN1CCN(Cc2ccc(NC(=O)c3ccc(C)c(/C=C/c4cnc5[nH]ccc5c4OC)c3)cc2C(F)(F)F)CC1
- residual activity [6]: 48%
- inhibition [7]: -8.8%
- residual activity [8]: 72%

Reference: ChEMBL document CHEMBL5696442, “Discovery of type II inhibitors of TGFβ-activated kinase 1 (TAK1) and mitogen-activated protein kinase kinase kinase kinase 2 (MAP4K2)” (J Med Chem, 2015)
